From ChEMBL document CHEMBL2176888, “Structure-activity relationships in human Toll-like receptor 8-active 2,3-diamino-furo[2,3-c]pyridines” (J Med Chem, 2012)
Activity calls are given as the source filed them. No cut-off for these calls is given here.

Key:
PBMC [1] = test: Induction of proinflammatory cytokine release in human PBMC after 12 hrs; type: cell-based
[2] = target: T1, Toll-like receptor 8 (Homo sapiens) (UniProt Q9NR97); test: (§1) Agonist activity at human TLR8 expressed in HEK293 cells assessed as induction of NF-kappaB activity by measuring extracellular secreted alkaline phosphatase by HEK-blue reporter gene assay; type: functional, cell-based
T1 sequence (whole entry): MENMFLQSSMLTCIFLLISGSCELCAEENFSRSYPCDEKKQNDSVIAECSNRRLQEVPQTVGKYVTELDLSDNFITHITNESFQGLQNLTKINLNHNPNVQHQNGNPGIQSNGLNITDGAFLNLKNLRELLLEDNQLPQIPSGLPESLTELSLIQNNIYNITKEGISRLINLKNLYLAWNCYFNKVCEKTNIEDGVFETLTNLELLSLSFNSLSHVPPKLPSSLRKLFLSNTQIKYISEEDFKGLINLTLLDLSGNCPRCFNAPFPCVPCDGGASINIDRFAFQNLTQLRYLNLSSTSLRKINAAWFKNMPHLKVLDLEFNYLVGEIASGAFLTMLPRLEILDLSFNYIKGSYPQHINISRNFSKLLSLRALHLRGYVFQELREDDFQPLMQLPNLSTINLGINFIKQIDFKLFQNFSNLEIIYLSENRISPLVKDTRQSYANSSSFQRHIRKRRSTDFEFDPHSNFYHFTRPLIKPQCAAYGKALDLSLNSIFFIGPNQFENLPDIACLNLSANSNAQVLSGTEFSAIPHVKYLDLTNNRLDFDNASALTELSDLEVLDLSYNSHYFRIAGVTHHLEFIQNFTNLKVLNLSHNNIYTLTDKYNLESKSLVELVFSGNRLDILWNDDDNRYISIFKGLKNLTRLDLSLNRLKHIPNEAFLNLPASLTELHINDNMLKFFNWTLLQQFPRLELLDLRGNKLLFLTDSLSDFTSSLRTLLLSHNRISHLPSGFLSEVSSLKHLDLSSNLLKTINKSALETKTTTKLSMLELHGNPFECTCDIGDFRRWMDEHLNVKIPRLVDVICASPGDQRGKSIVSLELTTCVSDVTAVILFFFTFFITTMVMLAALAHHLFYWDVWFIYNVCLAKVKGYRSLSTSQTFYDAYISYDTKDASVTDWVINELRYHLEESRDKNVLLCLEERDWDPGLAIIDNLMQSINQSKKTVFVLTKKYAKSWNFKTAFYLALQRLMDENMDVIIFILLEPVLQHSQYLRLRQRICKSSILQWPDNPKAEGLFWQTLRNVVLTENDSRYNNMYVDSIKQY

Toll-like receptor 8 = target: T2, Toll-like receptor 8 (Homo sapiens, UniProt Q9NR97); test: as §1; type: functional, cell-based; conditions: read-out: EC50
T2 sequence (Q9NR97 whole entry): T1 sequence (whole entry)

Oryctolagus cuniculus = species on record: Oryctolagus cuniculus; test: Adjuvantic activity in New Zealand White rabbit immunized with bovine alpha-lactalbumin on day 1, 15, and 28 assessed as anti-alpha-lactalbumin IgG level in serum at 100 ug measured on day 38 by ELISA; type: functional, organism-based
PBMC [3] = test: Induction of transcriptional signature of inflammatory gene expression in human PBMC cells after 2 hrs; type: cell-based
PBMC [4] = test: Up-regulation of CXCL gene in human PBMC cells after 2 hrs; type: cell-based
PBMC [5] = test: Up-regulation of CCL gene in human PBMC cells after 2 hrs; type: cell-based
[6] = target: T1, Toll-like receptor 8 (Homo sapiens); test: Agonist activity at human TLR8 expressed in HEK293 cells assessed as induction of NF-kappaB activity by measuring extracellular secreted alkaline phosphatase up to 250 uM by HEK-blue reporter gene assay; type: functional, cell-based
[7] = target: Toll-like receptor 4 (Homo sapiens) (UniProt O00206); test: Agonist activity at human TLR4 expressed in HEK293 cells assessed as induction of NF-kappaB activity by measuring extracellular secreted alkaline phosphatase up to 250 uM by HEK-blue reporter gene assay; type: functional, cell-based
[8] = target: T3, Toll-like receptor 7 (Homo sapiens) (UniProt Q9NYK1); test: Agonist activity at human TLR7 expressed in HEK293 cells assessed as induction of NF-kappaB activity by measuring extracellular secreted alkaline phosphatase up to 250 uM by HEK-blue reporter gene assay; type: functional, cell-based
T3 sequence (whole entry): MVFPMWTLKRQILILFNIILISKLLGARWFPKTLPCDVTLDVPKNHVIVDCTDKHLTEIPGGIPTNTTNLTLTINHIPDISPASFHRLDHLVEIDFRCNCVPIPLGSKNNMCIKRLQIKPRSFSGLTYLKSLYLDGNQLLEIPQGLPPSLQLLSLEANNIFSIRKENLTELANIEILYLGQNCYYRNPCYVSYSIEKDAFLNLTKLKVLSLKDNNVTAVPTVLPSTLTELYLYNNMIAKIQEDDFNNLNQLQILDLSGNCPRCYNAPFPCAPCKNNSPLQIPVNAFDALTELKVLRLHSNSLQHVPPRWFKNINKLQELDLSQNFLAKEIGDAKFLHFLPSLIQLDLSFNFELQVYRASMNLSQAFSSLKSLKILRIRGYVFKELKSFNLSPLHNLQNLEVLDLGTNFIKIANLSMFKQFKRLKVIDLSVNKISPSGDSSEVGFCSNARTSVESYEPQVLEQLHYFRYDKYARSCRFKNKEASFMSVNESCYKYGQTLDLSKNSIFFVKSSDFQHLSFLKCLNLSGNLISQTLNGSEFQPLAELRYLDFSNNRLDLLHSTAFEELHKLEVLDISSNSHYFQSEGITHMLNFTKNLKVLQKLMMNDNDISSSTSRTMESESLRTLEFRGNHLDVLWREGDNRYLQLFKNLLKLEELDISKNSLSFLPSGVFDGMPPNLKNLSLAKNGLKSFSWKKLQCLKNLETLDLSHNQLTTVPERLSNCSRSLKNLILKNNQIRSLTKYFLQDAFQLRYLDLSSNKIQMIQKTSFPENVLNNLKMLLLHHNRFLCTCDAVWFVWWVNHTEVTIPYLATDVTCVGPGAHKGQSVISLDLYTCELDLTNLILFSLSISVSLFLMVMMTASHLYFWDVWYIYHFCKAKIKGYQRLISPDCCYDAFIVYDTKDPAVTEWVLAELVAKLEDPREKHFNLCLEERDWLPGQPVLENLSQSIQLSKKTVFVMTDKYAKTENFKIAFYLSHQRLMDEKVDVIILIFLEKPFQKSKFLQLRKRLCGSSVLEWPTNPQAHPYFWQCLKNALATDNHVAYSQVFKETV

[9] = target: T4, Toll-like receptor 9 (Homo sapiens) (UniProt Q9NR96); test: Agonist activity at human TLR9 expressed in HEK293 cells assessed as induction of NF-kappaB activity by measuring extracellular secreted alkaline phosphatase up to 250 uM by HEK-blue reporter gene assay; type: functional, cell-based
T4 sequence (whole entry): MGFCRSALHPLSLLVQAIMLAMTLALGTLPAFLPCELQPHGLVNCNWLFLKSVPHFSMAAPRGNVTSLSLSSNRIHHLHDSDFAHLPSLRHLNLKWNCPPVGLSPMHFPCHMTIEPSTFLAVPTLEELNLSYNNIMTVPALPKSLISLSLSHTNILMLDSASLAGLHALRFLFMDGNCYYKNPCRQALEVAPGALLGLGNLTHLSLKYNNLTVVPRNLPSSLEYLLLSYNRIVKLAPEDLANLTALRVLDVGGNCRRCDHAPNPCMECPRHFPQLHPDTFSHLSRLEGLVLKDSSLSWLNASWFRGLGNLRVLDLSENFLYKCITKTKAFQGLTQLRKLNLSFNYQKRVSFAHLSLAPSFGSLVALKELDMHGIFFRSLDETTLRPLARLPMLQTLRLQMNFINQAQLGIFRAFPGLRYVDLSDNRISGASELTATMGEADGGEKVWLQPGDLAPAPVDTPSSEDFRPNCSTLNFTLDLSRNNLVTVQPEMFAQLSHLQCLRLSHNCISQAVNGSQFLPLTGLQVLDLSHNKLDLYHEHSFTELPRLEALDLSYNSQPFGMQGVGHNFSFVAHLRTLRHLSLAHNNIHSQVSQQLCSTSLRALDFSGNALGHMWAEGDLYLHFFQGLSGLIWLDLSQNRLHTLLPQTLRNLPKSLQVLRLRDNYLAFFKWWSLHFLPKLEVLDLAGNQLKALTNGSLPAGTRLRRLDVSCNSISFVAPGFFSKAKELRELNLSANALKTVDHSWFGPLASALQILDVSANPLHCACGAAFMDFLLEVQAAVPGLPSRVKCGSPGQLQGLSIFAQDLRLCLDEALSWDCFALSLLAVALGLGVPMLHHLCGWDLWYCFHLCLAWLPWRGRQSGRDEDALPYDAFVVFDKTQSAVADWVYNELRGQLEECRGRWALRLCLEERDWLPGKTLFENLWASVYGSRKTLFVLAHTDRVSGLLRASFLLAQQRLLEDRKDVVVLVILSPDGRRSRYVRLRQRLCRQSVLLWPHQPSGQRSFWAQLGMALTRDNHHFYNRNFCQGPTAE

[10] = target: Toll-like receptor 5 (Homo sapiens) (UniProt O60602); test: Agonist activity at human TLR5 expressed in HEK293 cells assessed as induction of NF-kappaB activity by measuring extracellular secreted alkaline phosphatase up to 250 uM by HEK-blue reporter gene assay; type: functional, cell-based
[11] = target: Toll-like receptor 3 (Homo sapiens) (UniProt O15455); test: Agonist activity at human TLR3 expressed in HEK293 cells assessed as induction of NF-kappaB activity by measuring extracellular secreted alkaline phosphatase up to 250 uM by HEK-blue reporter gene assay; type: functional, cell-based
Toll-like receptor 3 (Homo sapiens), sequence (O15455 whole entry): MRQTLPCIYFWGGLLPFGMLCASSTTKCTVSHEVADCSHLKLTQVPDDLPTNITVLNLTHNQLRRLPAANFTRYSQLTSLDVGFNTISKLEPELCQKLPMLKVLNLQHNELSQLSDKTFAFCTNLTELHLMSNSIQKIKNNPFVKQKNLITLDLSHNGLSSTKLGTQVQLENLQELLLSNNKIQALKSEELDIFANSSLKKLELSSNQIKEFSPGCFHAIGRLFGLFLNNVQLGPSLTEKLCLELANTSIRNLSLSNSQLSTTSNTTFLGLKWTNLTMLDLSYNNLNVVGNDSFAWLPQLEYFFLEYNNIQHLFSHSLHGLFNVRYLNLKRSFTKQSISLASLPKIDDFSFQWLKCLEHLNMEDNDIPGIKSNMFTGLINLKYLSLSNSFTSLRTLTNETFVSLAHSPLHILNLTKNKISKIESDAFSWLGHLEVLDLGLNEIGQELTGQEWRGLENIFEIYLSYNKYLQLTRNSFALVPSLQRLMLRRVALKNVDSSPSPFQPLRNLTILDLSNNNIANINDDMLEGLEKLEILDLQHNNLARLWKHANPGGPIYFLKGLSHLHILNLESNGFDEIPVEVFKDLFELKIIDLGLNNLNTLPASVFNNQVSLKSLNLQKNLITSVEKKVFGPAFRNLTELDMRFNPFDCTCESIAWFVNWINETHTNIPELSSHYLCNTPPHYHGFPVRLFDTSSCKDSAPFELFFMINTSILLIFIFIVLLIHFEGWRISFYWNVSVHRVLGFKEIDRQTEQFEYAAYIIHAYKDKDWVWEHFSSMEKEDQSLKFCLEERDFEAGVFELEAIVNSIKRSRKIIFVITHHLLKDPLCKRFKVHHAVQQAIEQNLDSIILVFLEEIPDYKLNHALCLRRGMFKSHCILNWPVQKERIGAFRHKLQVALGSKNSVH

Toll-like receptor 4 (Homo sapiens), sequence (O00206 whole entry): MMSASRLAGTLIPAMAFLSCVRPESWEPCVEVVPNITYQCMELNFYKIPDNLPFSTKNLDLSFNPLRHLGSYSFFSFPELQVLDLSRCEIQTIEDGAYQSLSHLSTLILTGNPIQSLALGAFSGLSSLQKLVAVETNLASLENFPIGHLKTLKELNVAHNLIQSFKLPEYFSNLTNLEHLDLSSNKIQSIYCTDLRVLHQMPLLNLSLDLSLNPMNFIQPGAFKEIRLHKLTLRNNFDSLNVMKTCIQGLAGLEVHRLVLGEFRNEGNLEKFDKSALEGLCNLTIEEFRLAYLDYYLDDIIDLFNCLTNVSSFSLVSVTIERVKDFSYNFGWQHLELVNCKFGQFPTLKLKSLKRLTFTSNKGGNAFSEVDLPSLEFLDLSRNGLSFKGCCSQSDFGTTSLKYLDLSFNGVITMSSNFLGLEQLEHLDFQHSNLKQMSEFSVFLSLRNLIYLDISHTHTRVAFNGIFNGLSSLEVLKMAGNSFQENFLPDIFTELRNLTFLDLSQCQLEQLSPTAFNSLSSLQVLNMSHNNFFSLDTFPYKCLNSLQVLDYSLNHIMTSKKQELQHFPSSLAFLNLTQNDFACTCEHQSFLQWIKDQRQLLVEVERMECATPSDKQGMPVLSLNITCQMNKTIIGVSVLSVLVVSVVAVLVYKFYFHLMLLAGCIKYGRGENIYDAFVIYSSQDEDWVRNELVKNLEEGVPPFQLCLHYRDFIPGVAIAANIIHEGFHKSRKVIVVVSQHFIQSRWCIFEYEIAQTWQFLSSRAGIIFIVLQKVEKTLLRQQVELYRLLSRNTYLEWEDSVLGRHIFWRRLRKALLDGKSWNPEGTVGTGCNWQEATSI
Toll-like receptor 5 (Homo sapiens), sequence (O60602 whole entry): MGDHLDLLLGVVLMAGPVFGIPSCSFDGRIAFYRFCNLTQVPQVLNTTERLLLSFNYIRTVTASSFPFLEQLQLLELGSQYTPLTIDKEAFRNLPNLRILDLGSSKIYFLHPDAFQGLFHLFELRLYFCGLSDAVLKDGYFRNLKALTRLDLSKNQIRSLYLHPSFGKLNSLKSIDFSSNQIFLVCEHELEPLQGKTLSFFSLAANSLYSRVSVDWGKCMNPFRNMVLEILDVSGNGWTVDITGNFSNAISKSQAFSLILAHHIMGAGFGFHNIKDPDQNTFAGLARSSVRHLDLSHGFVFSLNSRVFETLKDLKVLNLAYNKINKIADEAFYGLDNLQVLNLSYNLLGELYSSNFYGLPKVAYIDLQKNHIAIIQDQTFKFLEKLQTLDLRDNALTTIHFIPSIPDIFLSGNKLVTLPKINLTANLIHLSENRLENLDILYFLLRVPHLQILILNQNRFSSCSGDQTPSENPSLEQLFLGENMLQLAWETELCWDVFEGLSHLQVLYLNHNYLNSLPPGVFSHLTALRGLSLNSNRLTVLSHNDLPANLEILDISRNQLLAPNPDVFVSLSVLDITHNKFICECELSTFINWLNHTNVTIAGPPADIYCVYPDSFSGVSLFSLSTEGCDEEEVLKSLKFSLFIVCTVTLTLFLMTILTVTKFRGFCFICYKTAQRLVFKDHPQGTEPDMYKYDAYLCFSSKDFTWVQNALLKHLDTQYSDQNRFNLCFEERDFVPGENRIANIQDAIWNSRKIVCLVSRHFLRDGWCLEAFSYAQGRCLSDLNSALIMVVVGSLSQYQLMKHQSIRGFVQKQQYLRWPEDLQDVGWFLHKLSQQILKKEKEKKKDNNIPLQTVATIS

| SMILES | Activity [2] | EC50 (Toll-like receptor 8) | Activity [6] | Activity [7] | Activity [8] | Activity [9] | Activity [10] | Activity [11] | Activity (PBMC [1]) | Activity (Oryctolagus cuniculus) | Activity (PBMC [3]) | Activity (PBMC [4]) | Activity (PBMC [5]) |
| --- | --- | --- | --- | --- | --- | --- | --- | --- | --- | --- | --- | --- | --- |
| CCCCNc1oc2c(C)ncc(CO)c2c1Nc1ccccn1 | Dose-dependent effect | 9.38 µM | – | – | – | – | – | – | Non-toxic | – | – | – | – |
| Oc1ccccc1-c1nc2cnccn2c1NCc1ccccc1 | – | – | inactive | inactive | inactive | inactive | inactive | inactive | – | – | – | – | – |
| Cc1ncc(CO)c2c(Nc3ccccn3)c(NC[Si](C)(C)C)oc12 | Dose-dependent effect | 4.99 µM | – | – | – | – | – | – | Non-toxic | – | Non-toxic | Toxic | Toxic |
| CCCc1nc2c(N)nc3ccccc3c2s1 | – | – | – | – | – | – | – | – | Toxic | – | – | – | – |
| c1ccc(-c2nc3ccccn3c2NC2CCCCC2)cc1 | – | – | inactive | inactive | inactive | inactive | inactive | inactive | – | – | – | – | – |
| CC(C)(C)Nc1c(-c2ccccc2)nc2cnccn12 | – | – | inactive | inactive | inactive | inactive | inactive | inactive | – | – | – | – | – |
| CCCCc1nc2c(N)nccn2c1Nc1ccc(OC)cc1 | – | – | inactive | inactive | inactive | inactive | inactive | inactive | – | – | – | – | – |
| Nc1nccn2c(NC3CCCCC3)c(-c3ccccc3)nc12 | – | – | inactive | inactive | inactive | inactive | inactive | inactive | – | – | – | – | – |

Second part, led by results:

| Activity [2] | EC50 (Toll-like receptor 8) | Activity [6] | Activity [7] | Activity [8] | Activity [9] | Activity [10] | Activity [11] | SMILES | Activity (PBMC [1]) | Activity (Oryctolagus cuniculus) | Activity (PBMC [3]) | Activity (PBMC [4]) | Activity (PBMC [5]) |
| --- | --- | --- | --- | --- | --- | --- | --- | --- | --- | --- | --- | --- | --- |
| Dose-dependent effect | 5.81 µM | – | – | – | – | – | – | CCCCCNc1oc2c(C)ncc(CO)c2c1Nc1ccccn1 | Non-toxic | Active | Non-toxic | Toxic | Toxic |
| – | – | inactive | inactive | inactive | inactive | inactive | inactive | c1ccc(CNc2c(-c3ccccc3)nc3ccccn23)cc1 | – | – | – | – | – |
| – | – | inactive | inactive | inactive | inactive | inactive | inactive | CC(C)(C)Nc1c(-c2ccncc2)nc2cnccn12 | – | – | – | – | – |
| Dose-dependent effect | 4.91 µM | – | – | – | – | – | – | Cc1ncc(CO)c2c(Nc3ccccn3)c(NCc3ccccc3)oc12 | Non-toxic | – | – | – | – |
| – | – | inactive | inactive | inactive | inactive | inactive | inactive | CC(C)(C)Nc1c(-c2ccccc2O)nc2cnccn12 | – | – | – | – | – |
| – | – | inactive | inactive | inactive | inactive | inactive | inactive | c1cc(-c2nc3cnccn3c2NC2CCCCC2)ccn1 | – | – | – | – | – |
| – | – | inactive | inactive | inactive | inactive | inactive | inactive | c1ccc(CNc2c(-c3ccncc3)nc3ccccn23)cc1 | – | – | – | – | – |
| – | – | inactive | inactive | inactive | inactive | inactive | inactive | Oc1ccccc1-c1nc2cnccn2c1NC1CCCCC1 | – | – | – | – | – |
| – | – | inactive | inactive | inactive | inactive | inactive | inactive | Oc1ccccc1-c1nc2ccccn2c1NC1CCCCC1 | – | – | – | – | – |
